Experiment [1] deals with S. aureus subsp. aureus NBRC15035. The experiment in a line: Determination of minimum inhibitory concentration (MIC). It is filed as cell-based, Staphylococcus aureus. The settings on record: Staphylococcus aureus, read-out: MIC S. aureus. In short, it runs like this:
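Two-fold serial agar dilution on L agar and also on Mueller Hinton agar (pH 7.3); 10 µl of stationary-phase culture diluted in 0.85% NaCl to 10^6 cells/ml spotted per plate. MIC taken as lowest concentration inhibiting growth.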

Experiment [2] relates to Caulobacter chromosomal loci (origin, origin-distal loci). The experiment can be described thus: Chromosome segregation of FROS-labeled loci. The format is cell-based, Caulobacter crescentus. From the text:
A22 Treatment Blocks Chromosome Segregation. Having established that A22 targets MreB and rapidly disrupts its localization, we used A22 to assess the acute role of MreB in chromosome segregation. To this end we took advantage of strains previously generated in our group that use the fluorescent repressor-operator system (FROS) to simultaneously label two specific chromosomal loci in the same living cell. This system uses fusions of two DNA binding proteins, the lac repressor (LacI) and the Tet repressor (tetR), to CFP and YFP, respectively. Two arrays, each containing multiple tandem repeats of either the LacI or TetR binding sites, are integrated into different chromosomal loci. Each fusion protein clusters at its respective array, causing the cellular address of that array to fluoresce in a detectable fashion.
Synchronized swarmer cells with lac arrays at the origin locus and tet arrays at the midcell-positioned CC2943 locus (FIG. 5A) were incubated with 10 μg/ml A22. After varying periods of time in the presence of A22, the cellular positions of the origin and CC2943 were examined by fluorescence microscopy. The cultures continued to increase in cell mass, as measured by an increase in optical density, but cell division was blocked. […] This effect was reversible, since upon washing out the A22 drug, the origins were rapidly and normally segregated.
Treatment of swarmer cells with A22 before the origins have segregated blocks the movement of chromosomal loci. […]
Though origin-distal loci can separate in the presence of A22, MreB could still partially contribute to their cellular positioning and rate of movement across the cell. Technical considerations prevent the quantitative analysis of locus movement in doubly labeled cells. Thus, to quantitatively assess the role of MreB in origin-distal locus segregation, we examined two singly labeled strains, one with CC0786 marked at 860 kb to the right of the origin, and one with CC3192 marked at 576 kb to the left of the origin. […] The timelapses were analyzed using automated software that provides the absolute position of each locus in each cell. […]
Microscopy and Timelapse Imaging. […] The rates of origin-distal locus segregation were determined by inducing PxyI:lacI:cfp expression with 0.03% xylose for 75 min, isolating swarmer cells, and growing the swarmer cells in M2G liquid medium for 50 min. After 50 min, 10 μg/ml of A22 was added to these liquid cultures, they were mounted onto 1% M2G agarose pads containing 10 μg/ml A22, and a phase and CFP fluorescence image was captured every 2 min for 60 min. The images were analyzed by previously described software to determine the average position and rate of movement of the observed foci.

In the next experiment the target is T1, MreB (Caulobacter vibrioides, UniProt A0A0H3C7V4).
T1 construct: endogenous in cells; host or cells: Caulobacter crescentus cells (formaldehyde-crosslinked extracts)
The experiment in a line: Chromatin immunoprecipitation with anti-MreB. It is filed as cell-based, Caulobacter crescentus. The settings on record: in the presence of A22. An excerpt:
MreB Associates with Origin-Proximal Loci. The specific inhibition of origin movement by A22 raises the possibility that the duplicated origin moves to the opposite pole through a specific physical association with MreB, much as eukaryotic centromeres are segregated by association with microtubules. We sought to detect such an association in vivo by chromatin immunoprecipitation (ChIP). Following previously established protocols, Caulobacter extracts were ChIP'ed with polyclonal antisera raised against purified Caulobacter MreB. PCR was then used to amplify specific segments of the Caulobacter chromosome. […] We detected a faint signal with primers to the dnaA promoter located 6 kb to the right of the origin (FIG. 8), possibly reflecting the fact that dnaA is at the edge of the MreB binding region.
Chromatin Immunoprecipitations. Formaldehyde-crosslinked chromatin immunoprecipitation was performed as described previously. The anti-MreB antibody was raised by cloning the mreB coding sequence into the pET28a vector (Novagen). The resulting His6-tagged MreB was overexpressed in BL21(DE3)/pLysS E. coli and purified using Qiagen Ni2+-NTA agarose as described previously. Two milligrams of purified His6-MreB was used to immunize two rabbits (Josman Laboratories, Napa, Calif.). Oligonucleotide primer sequences for the regions PCR amplified are available upon request.

In another experiment the test system is E. coli cells. The experiment can be described thus: Cell lysis. The format is cell-based. From the text: To facilitate the isolation of A22-resistant mutants a PBP 1B-defective (ponB^−) mutant strain, JST975, which forms a clear growth inhibitory zone upon A22 treatment, was selected as the parent strain in our screen. […] This correlates well with the increased sensitivity of mreB mutant strains to β-lactam antibiotics. In future screens for antibacterial agents derived from A22, it will be important to consider that the antibacterial effect of A22 on wild-type E. coli cells may be enhanced by simultaneous treatment with sub-lethal concentrations of β-lactam antibiotics.

This note sets out measurements from patent US7855228B2, “Antibiotics targeting MreB” (The Board of Trustees of the Leland Stamford Junior …, priority 2005, dated 2010).

Entries after “also recorded” stand apart in the source; their conditions may differ. Read-outs that look alike come from different tables or passages of the source.

T1 sequence (A0A0H3C7V4 whole entry): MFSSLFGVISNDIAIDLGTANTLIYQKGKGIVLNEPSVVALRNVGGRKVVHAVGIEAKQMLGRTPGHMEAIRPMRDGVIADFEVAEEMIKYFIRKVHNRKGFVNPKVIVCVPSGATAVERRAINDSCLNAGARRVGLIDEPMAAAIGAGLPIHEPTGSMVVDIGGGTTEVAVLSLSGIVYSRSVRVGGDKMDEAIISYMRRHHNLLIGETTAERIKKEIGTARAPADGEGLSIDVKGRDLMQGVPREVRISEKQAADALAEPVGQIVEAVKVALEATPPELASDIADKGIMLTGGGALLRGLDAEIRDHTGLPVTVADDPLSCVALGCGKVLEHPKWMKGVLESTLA

For `N=C(N)SCc1ccc(Cl)c(Cl)c1` [Compound 1, S-(3,4-dichlorobenzyl)isothiourea], the MIC in experiment [1] (NBRC15035, Example 2, methods as in Example 1) was more than 100 µg/mL; in experiment [1] (NBRC15035, Table 1, NBRC15035), more than 100 µg/mL. In experiment [2] (10 μg/ml), the “Origin segregation in cells with T158A A22-resistant mreB allele” value is recorded as “successfully segregated”. In experiment [2] (10 μg/ml added after 50 min, timelapse 60 min), the “Locus position and rate of segregation of CC0786 and CC3192” value is “unaffected”. Besides, the “Foci of origin and CC2943 loci in swarmer cells” value in experiment [2] (10 μg/ml added to synchronized swarmer cells, 30-180 min) is “only one focus for each locus”. Further, the “Separation of origin-distal loci (CC2943, CC3300, CC3656, CC0091)” value in experiment [2] (A22 added after origin segregation (30 min), listed as A22) was “proceeded to replicate and separate their CC2943 locus into two foci; also recorded: duplicated and separated in the presence of A22”. In addition, the “Origin coimmunoprecipitation with MreB” value at MreB is “significantly reduced, though not abolished”. The “Lysis of E. coli cells in the absence of PBP 1B” value with E. coli cells (JST975 liquid culture) is listed as “induces cell lysis”. Besides, in the experiment on E. coli cells (wild-type), the “Lysis of wild-type E. coli cells” value is “does not lyse”.
